In patent US9221809B2 (MERCK SHARP & DOHME CORP., priority 2011, dated 2015):
pIC50: −log10 of the molar value.

target: IRAK4 (Homo sapiens (Human), UniProt Q9NWZ3); experiment: IRAK4 kinase activity, IMAP fluorescence polarization assay; assay type: biochemical; settings: 100 μM ATP, 0.5 nM GST tagged IRAK4; read-out: IRAK4 IC50
Summary of the method: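 GST-tagged IRAK4 at 0.5 nM phosphorylates 100 nM fluorescent peptide substrate with 100 μM ATP in pH 7.2 Tris buffer containing MgCl2, DTT and Tween 20, 30 min at 25 °C. Reaction stopped with IMAP binding reagent; phosphorylation read as increased fluorescence polarization.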

Chain of IRAK4 (Q9NWZ3 whole entry): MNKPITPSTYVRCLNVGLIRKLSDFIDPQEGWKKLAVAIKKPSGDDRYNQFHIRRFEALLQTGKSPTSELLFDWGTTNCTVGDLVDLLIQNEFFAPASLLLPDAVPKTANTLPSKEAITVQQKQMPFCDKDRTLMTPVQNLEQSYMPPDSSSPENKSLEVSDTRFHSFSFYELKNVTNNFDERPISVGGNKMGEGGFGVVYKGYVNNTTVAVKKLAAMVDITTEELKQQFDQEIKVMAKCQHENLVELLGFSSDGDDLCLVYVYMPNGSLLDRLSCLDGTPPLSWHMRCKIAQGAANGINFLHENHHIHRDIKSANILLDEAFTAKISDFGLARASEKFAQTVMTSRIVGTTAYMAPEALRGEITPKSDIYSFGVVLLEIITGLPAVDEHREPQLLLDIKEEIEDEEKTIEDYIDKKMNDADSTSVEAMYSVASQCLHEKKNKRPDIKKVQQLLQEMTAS

pIC50 | SMILES
7.15 | O=c1[nH]c(N2CCOCC2)nc(N[C@@H]2CCCNC2)c1-c1nc2cc(C(F)(F)F)ccc2s1 [Example 337, 2-(morpholin-4-yl)-6-[[(3R)-piperidin-3-yl]amino]-5-[5-(trifluoromethyl)-1,3-benzothiazol-2-yl]-3,4-dihydropyrimidin-4-one]
6.28 | O=c1[nH]c(N2CCOCC2)nc(N[C@@H]2CCCNC2)c1-c1nc2cccc(C(F)(F)F)c2s1 [Example 338, (R)-2-morpholino-6-(piperidin-3-ylamino)-5-(7-(trifluoromethyl)benzo[d]thiazol-2-yl)pyrimidin-4(3H)-one]
6.74 | O=c1[nH]c(N2CCOCC2)nc(N[C@@H]2CCCNC2)c1-c1nc2cccc(Cl)c2s1 [Example 339, (R)-5-(7-chlorobenzo[d]thiazol-2-yl)-2-morpholino-6-(piperidin-3-ylamino)pyrimidin-4(3H)-one]
7.30 | Cc1ccc2sc(-c3c(N[C@@H]4CCCNC4)nc(N4CCOCC4)[nH]c3=O)nc2c1 [Example 341, 5-(5-methyl-1,3-benzothiazol-2-yl)-2-(morpholin-4-yl)-6-[[(3R)-piperidin-3-yl]amino]-3,4-dihydropyrimidin-4-one formic acid]
5.89 | CC(C)(C)c1ccc2sc(-c3c(N[C@@H]4CCCNC4)nc(N4CCOCC4)[nH]c3=O)nc2c1 [Example 342, (R)-5-(5-tert-butylbenzo[d]thiazol-2-yl)-2-morpholino-6-(piperidin-3-ylamino)pyrimidin-4(3H)-one]
8.10 | O=c1[nH]c(N2CCOCC2)nc(N[C@@H]2CCCNC2)c1-c1nc2cc(Cl)ccc2s1 [Example 343, (R)-5-(5-chlorobenzo[d]thiazol-2-yl)-2-morpholino-6-(piperidin-3-ylamino)pyrimidin-4(3H)-one]
5.35 | O=c1[nH]c(N2CCOCC2)nc(N[C@@H]2CCCNC2)c1-c1nc2cccc(C3CC3)c2s1 [Example 344, 5-(7-cyclopropyl-1,3-benzothiazol-2-yl)-2-(morpholin-4-yl)-6-[[(3R)-piperidin-3-yl]amino]-3,4-dihydropyrimidin-4-one trifluoroacetic acid]
7.72 | O=c1[nH]c(N2CCOCC2)nc(N[C@@H]2CCCNC2)c1-c1nc2cc(Br)ccc2s1 [Example 345, 5-(5-bromo-1,3-benzothiazol-2-yl)-2-(morpholin-4-yl)-6-[[(3R)-piperidin-3-yl]amino]-3,4-dihydropyrimidin-4-one]
6.48 | O=c1[nH]c(N2CCOCC2)nc(N[C@@H]2CCCNC2)c1-c1nc2cc(C3CC3)ccc2s1 [Example 346, 5-(5-cyclopropyl-1,3-benzothiazol-2-yl)-2-(morpholin-4-yl)-6-[[(3R)-piperidin-3-yl]amino]-3,4-dihydropyrimidin-4-one trifluoroacetic acid]
8.00 | NC(=O)c1ccc2sc(-c3c(N[C@@H]4CCCNC4)nc(N4CCOCC4)[nH]c3=O)nc2c1 [Example 347, (R)-2-(2-morpholino-6-oxo-4-(piperidin-3-ylamino)-1,6-dihydropyrimidin-5-yl)benzo[d]thiazole-5-carboxamide]
8.30 | N#Cc1ccc2sc(-c3c(N[C@@H]4CCCNC4)nc(N4CCOCC4)[nH]c3=O)nc2c1 [Example 348, 2-[2-(morpholin-4-yl)-6-oxo-4-[[(3R)-piperidin-3-yl]amino]-1,6-dihydropyrimidin-5-yl]-1,3-benzothiazole-5-carbonitrile]
7.70 | O=c1[nH]c(N2CCN(c3cccnc3)CC2)nc(N[C@@H]2CCCNC2)c1-c1nc(-c2ccc(F)cc2)cs1 [Example 349, 5-[4-(4-fluorophenyl)-1,3-thiazol-2-yl]-6-[[(3R)-piperidin-3-yl]amino]-2-[4-(pyridin-3-yl)piperazin-1-yl]-3,4-dihydropyrimidin-4-one]
7.80 | NCCNc1cccc2sc(-c3c(N[C@@H]4CCCNC4)nc(N4CCOCC4)[nH]c3=O)nc12 [Example 356, 5-[4-[(2-aminoethyl)amino]-1,3-benzothiazol-2-yl]-2-(morpholin-4-yl)-6-[[(3R)-piperidin-3-yl]amino]-3,4-dihydropyrimidin-4-one]

SMILES | pIC50
Cc1cccc2nc(-c3c(N[C@@H]4CCCNC4)nc(N4CCOCC4)[nH]c3=O)sc12 [Example 340, (R)-5-(7-methylbenzo[d]thiazol-2-yl)-2-morpholino-6-(piperidin-3-ylamino)pyrimidin-4(3H)-one] | 6.24

same assay, conditions: 100 μM ATP; read-out: IC50

pIC50 | SMILES
7.33 | O=c1[nH]c(N2CCC3(CCN(c4ccc(Cl)cc4)C3)C2)nc(N[C@@H]2CCCNC2)c1-c1nc2ccccc2s1 (stereo partly drawn) [Example 331, 5-(1,3-benzothiazol-2-yl)-2-[7-(4-chlorophenyl)-2,7-diazaspiro[4.4]nonan-2-yl]-6-[[(3R)-piperidin-3-yl]amino]-3,4-dihydropyrimidin-4-one trifluoroacetic acid]
6.96 | O=c1[nH]c(N2CCC(NCc3ccccc3)CC2)nc(N[C@@H]2CCCNC2)c1-c1nc2ccccc2s1 [Example 332, 5-(1,3-benzothiazol-2-yl)-2-[4-(benzylamino)piperidin-1-yl]-6-[[(3R)-piperidin-3-yl]amino]-3,4-dihydropyrimidin-4-one trifluoroacetic acid]
7.68 | O=c1[nH]c(N2CCC3(CCN(c4ccccc4)C3)C2)nc(N[C@@H]2CCCNC2)c1-c1nc2ccccc2s1 (stereo partly drawn) [Example 334, 5-(1,3-benzothiazol-2-yl)-2-[7-phenyl-2,7-diazaspiro[4.4]nonan-2-yl]-6-[[(3R)-piperidin-3-yl]amino]-3,4-dihydropyrimidin-4-one]
7.68 | O=c1[nH]c(N2CCN(c3ncccn3)CC2)nc(N[C@@H]2CCCNC2)c1-c1nc(-c2ccc(F)cc2)cs1 [Example 350, 5-[4-(4-fluorophenyl)-1,3-thiazol-2-yl]-6-[[(3R)-piperidin-3-yl]amino]-2-[4-(pyrimidin-2-yl)piperazin-1-yl]-3,4-dihydropyrimidin-4-one; trifluoroacetic acid]

SMILES | pIC50
CC(=O)NC1CCN(c2nc(N[C@@H]3CCCNC3)c(-c3nc4ccccc4s3)c(=O)[nH]2)CC1 [Example 333, N-[1-[5-(1,3-benzothiazol-2-yl)-6-oxo-4-[[(3R)-piperidin-3-yl]amino]-1,6-dihydropyrimidin-2-yl]piperidin-4-yl]acetamide trifluoroacetic acid] | 7.03
